Common to all, as to format: in vivo
Assay [1] has as its system Erysiphe graminis tritici (powdery mildew). Kind of assay: Test 1 greenhouse foliar spray screen, powdery mildew on wheat. The conditions noted are these: Blumeria graminis, foliar, Test 1, foliar spray on wheat; disease control rating at 400 ppm / 100 ppm; read-out: POWD MDEW.
The test system of assay [2] is Pyricularia oryzae (rice blast). Briefly: whole plant or invertebrate. The conditions noted are these: Pyricularia oryzae, foliar, read-out: RICE BLAST, Test 1, foliar spray on rice; disease control rating at 400 ppm / 100 ppm.
For assay [3], the system named is Puccinia recondita tritici (leaf rust). Briefly: Test 1 greenhouse foliar spray screen, leaf rust on wheat. The note with it: Puccinia recondita, foliar, Test 1, foliar spray on wheat; disease control rating at 400 ppm / 100 ppm.
Assay [4] deals with Botrytis cinerea (gray mold). Briefly: Test 1 greenhouse foliar spray screen, gray mold on grape berries. The note with it: Botrytis cinerea, foliar; Test 1, spray on grape berries; disease control rating at 400 ppm / 100 ppm.
The subject of assay [5] is Pseudoperonospora cubensis (downy mildew). Briefly: Test 1 greenhouse foliar spray screen, downy mildew on squash. The note with it: Pseudoperonospora cubensis, foliar, Test 1, foliar spray on squash; disease control rating at 400 ppm / 100 ppm; read-out: DOWN MDEW.
Assay [6] has as its system southern armyworm (Spodopetra eridania Cramer). Kind of assay: Mite/insect screen, SAW. The conditions noted are these: Spodoptera eridania, foliar, percent mortality, foliar spray on squash, read-out: SAW RESULTS %; for mortality at 200 ppm: rate 200 ppm; for mortality at 400 ppm: rate 400 ppm. Put shortly:
(§1)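 Percent mortality was scored after standard exposure periods, following spraying of leaves to runoff (both surfaces, 10 psi, 1 h drying) with water dilutions of compound in emulsifier-containing acetone/alcohol (50:50). Armyworms received excised treated leaves in dishes.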

The test system of assay [7] is Twospotted spider mites (Tetranychus urticae Koch). Briefly: Mite/insect screen, SM. The note with it: Tetranychus urticae, foliar, percent mortality, foliar spray on squash, read-out: SM RESULTS %; for mortality at 200 ppm: rate 200 ppm; for mortality at 400 ppm: rate 400 ppm. Put shortly: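 Read-out: percent mortality after standard exposure periods. Test solutions were water dilutions of compound dissolved in acetone/alcohol (50:50) with emulsifier blends; leaves were sprayed to runoff on both surfaces and air-dried for one hour before exposure.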

Assay [8] concerns melon aphids (Aphis gossypii Glover). Briefly: Mite/insect screen, MA. The conditions noted are these: Aphis gossypii, foliar, percent mortality, foliar spray on squash, read-out: MA RESULTS %; for mortality at 200 ppm: rate 200 ppm; for mortality at 400 ppm: rate 400 ppm. Put shortly: as §1
In a further assay the test system is corn rootworm. Kind of assay: Mite/insect screen, CRW. The note with it: percent mortality, read-out: CRW RESULTS %; for mortality at 12 ppm: CRW rate 12.00 ppm; for mortality at 24 ppm: CRW rate 24.00 ppm. Put shortly: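 Corn rootworm mortality (%) was evaluated following standard exposure times. Test material was emulsified by dissolution in acetone/alcohol (1:1) containing sulfonate/nonionic emulsifier blends TOXIMUL R (23 g/L) and TOXIMUL S (13 g/L), and water-diluted to the indicated doses.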

Turning to `Fc1cccc2c(OCCCc3ccc(Oc4ccccc4)cc3)ccnc12` [Example 282, 8-fluoro-4-[3-(4-phenoxyphenyl)propoxy]quinoline], the pest or weed control at 400 ppm in assay [1] is 0 to 19%; in assay [2], 20 to 89%; in assay [3], 0 to 19%; in assay [4], 0 to 19%; in assay [5], 0 to 19%. Also, the mortality at 200 ppm in assay [6], in assay [7] and in [8] was 0% in each case. Further, the mortality at 400 ppm in [6], in assay [7] and in assay [8] was 0% in each case. For the same molecule, the mortality at 12 ppm with corn rootworm was 0%. The mortality at 24 ppm in the assay on corn rootworm worked out at 0%.

On to `CC(CNc1ccnc2cc(Cl)ccc12)c1ccc(Cl)cc1` (centres unmarked) [Example 283, 7-chloro-N-[2-(4-chlorophenyl)propyl]-4-quinolinamine], for which the pest or weed control at 400 ppm was in the range of 20 to 89% in assay [1]; 20 to 89% in [2]; 90 to 100% in assay [3]; 0 to 19% in assay [4]; 90 to 100% in assay [5]. For the same molecule, the mortality at 200 ppm in assay [6] was 0%; in [7], 0%; in assay [8] it was 80%. The mortality at 400 ppm was found to be 0% in assay [6], 80% in [7] and 0% in [8]. For the same molecule, the mortality at 12 ppm in the assay on corn rootworm amounted to 0%. Moreover, the mortality at 24 ppm in the assay on corn rootworm was determined as 0%.

Turning to `Fc1cccc2c(OCCCC(Br)CBr)ccnc12` (centres unmarked) [Example 284, 4-[(4,5-dibromopentyl)oxy]-8-fluoroquinoline], the pest or weed control at 400 ppm is 0 to 19% in assay [1]; 90 to 100% in [2]; 90 to 100% in assay [3]; 0 to 19% in assay [4]; 20 to 89% in [5]. For the same molecule, the mortality at 200 ppm in [6], in assay [7] and in assay [8] was 0% in each case. For the same molecule, the mortality at 400 ppm in assay [6], in assay [7] and in [8] was 0% in each case. In addition, in the assay with corn rootworm, the mortality at 12 ppm was found to be 0%. The mortality at 24 ppm with corn rootworm was determined as 0%.

Turning to `Fc1cccc2c(OCCCCCCCCOc3ccccc3)ccnc12` [Example 285, 8-fluoro-4-[(8-phenoxyoctyl)oxy]quinoline], the pest or weed control at 400 ppm in assay [1], in [2], in [3], in [4] and in assay [5] was 0 to 19% each time. The mortality at 200 ppm in [6] is 0%; in assay [7], 40%; in assay [8], 80%. The mortality at 400 ppm in assay [6], in assay [7] and in assay [8] was 0% in each case. For the same molecule, the mortality at 12 ppm in the assay on corn rootworm was 0%. Moreover, the mortality at 24 ppm in the assay with corn rootworm came to 0%.

Consider `Cc1cc(OCCc2ccc(C(C)(C)C)cc2)c2cc(Cl)ccc2n1` [Example 286, 6-chloro-2-methyl-4-[2-[4-(t-butyl)phenyl]ethoxy]quinoline], for which the pest or weed control at 400 ppm in assay [1] lay within 20 to 89%; in assay [2], 0 to 19%; in [3], 20 to 89%; in assay [4], 0 to 19%; in assay [5], 0 to 19%. The mortality at 200 ppm in assay [6], in assay [7] and in [8] was 0% each time. For the same molecule, the mortality at 400 ppm in [6], in [7] and in [8] was 0% throughout. Moreover, the mortality at 12 ppm with corn rootworm is 0%. For the same molecule, the mortality at 24 ppm in the assay with corn rootworm came to 0%.

As for `Fc1cccc2c(OCCCCCCOc3ccccc3)ccnc12` [Example 287, 8-fluoro-4-[(6-phenoxyhexyl)oxy]quinoline], the pest or weed control at 400 ppm is 0 to 19% in assay [1]; 0 to 19% in [2]; 20 to 89% in [3]; 0 to 19% in [4]; 90 to 100% in assay [5]. Moreover, the mortality at 200 ppm was 0% in assay [6], 0% in assay [7] and 80% in assay [8]. The mortality at 400 ppm in [6], in assay [7] and in assay [8] was 0% throughout. In addition, the mortality at 12 ppm with corn rootworm amounted to 0%. The mortality at 24 ppm with corn rootworm stood at 0%.

As for `CC(C)(CNc1ccnc2c(Cl)cccc12)c1ccccc1` [Example 288, 8-chloro-N-(2-methyl-2-phenylpropyl)-4-quinolinamine], the pest or weed control at 400 ppm lay within 0 to 19% in assay [1]; 20 to 89% in [2]; 0 to 19% in assay [3]; 0 to 19% in [4]; 20 to 89% in [5]. For the same molecule, the mortality at 200 ppm in assay [6], in [7] and in [8] was 0% throughout. Moreover, the mortality at 400 ppm in assay [6], in assay [7] and in assay [8] was 0% throughout. The mortality at 12 ppm in the assay on corn rootworm is 0%. Also, the mortality at 24 ppm in the assay on corn rootworm is 0%.

Take `CC(C)(CNc1ccnc2c(F)cccc12)c1ccccc1` [Example 289, 8-fluoro-N-(2-methyl-2-phenylpropyl)-4-quinolinamine]: the pest or weed control at 400 ppm fell in the range of 20 to 89% in assay [1]; 90 to 100% in assay [2]; 90 to 100% in [3]; 0 to 19% in assay [4]; 90 to 100% in [5]. The mortality at 200 ppm in assay [6], in [7] and in assay [8] was 0% in each case. For the same molecule, the mortality at 400 ppm in assay [6], in assay [7] and in [8] was 0% in each case. For the same molecule, the mortality at 12 ppm in the assay with corn rootworm is 0%. Further, the mortality at 24 ppm in the assay with corn rootworm came to 0%.

Take `COc1ccc2nc(C)cc(NCCc3cccc(Oc4ccccc4)c3)c2c1` [Example 290, 6-methoxy-2-methyl-N-[2-(3-phenoxyphenyl)ethyl]-4-quinolinamine]: the pest or weed control at 400 ppm in assay [1] was 0 to 19%; in assay [2], 90 to 100%; in [3], 20 to 89%; in [4], 0 to 19%; in assay [5], 90 to 100%. The mortality at 200 ppm was determined as 0% in assay [6], 80% in [7] and 80% in assay [8]. Moreover, the mortality at 400 ppm in assay [6], in assay [7] and in [8] was 0% each time. In addition, the mortality at 12 ppm with corn rootworm turned out to be 0%. In the assay with corn rootworm, the mortality at 24 ppm stood at 0%.

For the molecule `Fc1cccc2c(NCCc3ccc(OCc4ccccc4)cc3)ccnc12` [Example 291, 8-fluoro-N-[2-[4-(phenylmethoxy)phenyl]ethyl]-4-quinolinamine], the pest or weed control at 400 ppm in assay [1] was 90 to 100%; in [2], 90 to 100%; in assay [3], 90 to 100%; in [4] it was 0 to 19%; in assay [5], 90 to 100%. The mortality at 200 ppm in assay [6] was 0%; in assay [7], 0%; in assay [8] it was 100%. The mortality at 400 ppm in assay [6], in assay [7] and in assay [8] was 0% each time. In addition, in the assay on corn rootworm, the mortality at 12 ppm came out at 0%. Moreover, the mortality at 24 ppm in the assay on corn rootworm is 0%.

In the case of `Fc1ccc2c(OCCOc3ccc(Br)cc3)ccnc2c1` [Example 292, 7-fluoro-4-[2-(4-bromophenoxy)ethoxy]quinoline], the pest or weed control at 400 ppm in [1], in [2], in [3], in assay [4] and in assay [5] was 0 to 19% throughout. The results for the mortality at 200 ppm in assay [6], in [7] and in assay [8] were 0%, 0% and 30%, respectively. The mortality at 400 ppm in [6], in assay [7] and in assay [8] was 0% each time. In addition, the mortality at 12 ppm in the assay on corn rootworm was 0%. Further, the mortality at 24 ppm with corn rootworm was 0%.

For the origin of these results see patent EP0326331B1, “Substituted quinolines and cinnolines” (Dow AgroSciences LLC, priority 1988, dated 1989).
